Values of other authors as cited in US20230096856A1, “COMBINED TREATMENT REGIMEN OF […]/SEDATION WITH ADMINISTRATION OF P[…] ASSOCIATED WITH REDUCTION IN NEUROP[…]” (priority 2021, published 2023).

What was measured:
[1] = tested on: extracellular glutamate levels; conditions: rat models
AMPA receptor = conditions: sub-anesthetic dose, animal studies
[2] = tested on: N-methyl-D-aspartate (NMDA) receptors
[3] = tested on: gamma-aminobutyric acid type A receptors; conditions: acutely
5-HT2A receptors = 5-HT2A receptors (Homo sapiens, UniProt P28223)
Sequence of 5-HT2A receptors (P28223 whole entry): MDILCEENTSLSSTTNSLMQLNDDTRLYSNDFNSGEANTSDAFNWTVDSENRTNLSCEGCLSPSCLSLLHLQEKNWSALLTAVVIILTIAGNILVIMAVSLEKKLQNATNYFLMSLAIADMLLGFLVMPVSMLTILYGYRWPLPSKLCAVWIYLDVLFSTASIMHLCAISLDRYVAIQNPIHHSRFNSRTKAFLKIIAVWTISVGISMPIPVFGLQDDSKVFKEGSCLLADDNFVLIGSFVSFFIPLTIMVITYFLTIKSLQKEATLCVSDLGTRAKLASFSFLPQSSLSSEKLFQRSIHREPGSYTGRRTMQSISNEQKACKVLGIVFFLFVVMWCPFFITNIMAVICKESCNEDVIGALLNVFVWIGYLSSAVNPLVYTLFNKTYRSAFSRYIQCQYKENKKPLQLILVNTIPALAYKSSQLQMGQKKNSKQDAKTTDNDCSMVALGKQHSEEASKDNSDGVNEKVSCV

BDNF = conditions: rats exposed to psychological stress
[4] = tested on: ventral dentate gyrus of the hippocampus; conditions: single dose
tinnitus = conditions: single dose, mice
Sigma-1 receptors [5] = molecular target: Sigma-1 receptors (Homo sapiens, UniProt Q99720); conditions: receptors that modulate immune responses in human monocyte-derived dendritic cells
Sequence of Sigma-1 receptors (Q99720 whole entry): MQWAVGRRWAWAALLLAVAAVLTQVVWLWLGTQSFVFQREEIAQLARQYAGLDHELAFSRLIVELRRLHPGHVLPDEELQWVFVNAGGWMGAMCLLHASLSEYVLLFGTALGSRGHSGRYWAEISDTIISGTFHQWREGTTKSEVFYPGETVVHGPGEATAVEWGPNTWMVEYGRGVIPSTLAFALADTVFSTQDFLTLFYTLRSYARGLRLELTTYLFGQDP

sigma-1 receptors [6] = tested on: sigma-1 receptors
[7] = tested on: hallucinogenic experience; conditions: in vivo

CNC1(c2ccccc2Cl)CCCCC1=O (stereo not drawn) [ketamine]
extracellular glutamate levels in prefrontal-limbic circuitry [1]: increases extracellular glutamate levels

CC(C)c1cccc(C(C)C)c1O [propofol]
expression of AMPA pGluR1 (AMPA receptor): increase the expression of AMPA pGluR1 in dose-dependent manner
speed and degree of glutamate-induced desensitization of the AMPA receptor in neurons (AMPA receptor): can decrease
inhibition of NMDA receptors [2]: does not induce inhibition
time after induction until desired SR>80% was reached (depression; EEG suppression ratio): About five
QIDS-SR scale scores (depression; after approximately four sessions (1 week), asymptote at approximately 7 sessions (two weeks)): significant reduction
average recovery time until oriented to time and place (depression; after eye opening): 5 to 10 min
cognitive side effects common for ECT (short term memory loss) (depression; in vivo): do not occur
effect on efficacy of ECT in treating depression (depression; in vivo): does not diminish the efficacy
period within which severity of self-report symptoms of moderate to severe depression is reduced (depression; in vivo): 1-2 weeks
time to state of unconsciousness upon induction (depression; in vivo): one
LTP induction [3]: inhibits long term potentiation (LTP) induction

COC(=O)[C@@H]1C[C@H](OC(C)=O)C(=O)[C@H]2[C@@]1(C)CC[C@H]1C(=O)O[C@H](c3ccoc3)C[C@]21C [salvinorin A]
interaction with 5-HT2A receptors (5-HT2A receptors): interact minimally, indirectly, or not at all

ibogaine
interaction with 5-HT2A receptors (5-HT2A receptors): interact minimally, indirectly, or not at all

O=C(c1ccc(F)cc1)C1CCN(CCn2c(=O)[nH]c3ccccc3c2=O)CC1 [ketanserin]
BDNF mRNA (BDNF): reducing the presence BDNF mRNA
immunoreactivity indicative of BDNF presence in brain areas (BDNF): inhibits BDNF immunoreactivity

COc1ccc2[nH]cc(CCN(C)C)c2c1 [5-MeO-DMT, 5-5-Methoxy-N,N-dimethyltryptamine]
cell proliferation and neuronal survivability in the ventral dentate gyrus of the hippocampus [4]: stimulates cell proliferation and neuronal survivability
neurogenesis in the ventral dentate gyrus ([4]; adult mice): enhances neurogenesis
tinnitus (tinnitus): can be reduced
affinity for Sigma-1 receptors (Sigma-1 receptors [5]): functionally significant affinity
mGluR5 regulation (human cerebral organoids): downregulation of mGluR5
neural plasticity and anti-inflammatory activity (human cerebral organoids): potentiation of neural plasticity and elevated anti-inflammatory activity
IFNc and GM-CSF expression (sigma-1 receptors [6]): suppressing
secretion level of anti-inflammatory interleukin 10 cytokine (sigma-1 receptors [6]): increase the secretion level
PLA2 activation (phospholipase A2 (PLA2)): differentially strong phospholipase A2 (PLA2) activation
duration of acute hallucinogenic state [7]: 5 to 20 min
duration of hallucinogenic experience [7]: 10 to 20 min
